Assay results: ChEMBL document CHEMBL5376002, “A Hybrid Antimicrobial Peptide Targeting Staphylococcus aureus with a Dual Function of Inhibiting Quorum Sensing Signaling and an Antibacterial Effect” (J Med Chem, 2023)
pKd: −log10 of the molar value. Converted amounts (≈) assume the structure as drawn. The source made the active and inactive calls. The calls are words filed in the database; no cut-off is given here. Numbered stars: 1 amine (or outer) side, 2 acyl side, 3 side chain; on linkers, the order of the positions; unused ones are H or OH. Bridge positions count the residues as written; N and C are the ends. Square brackets hold non-standard residues; d marks the D form. Peptide text beside a SMILES is read from it. I, II: the chains in the order shown. X1 = O=C1CC([*:2])C(=O)N1CCCCCC(=O)[*:1]; Dab = NCC[C@H](N)C(=O)O

Assays:
Staphylococcus aureus [1] = test: Bactericidal activity against Staphylococcus aureus ATCC 6538p assessed as inhibition of bacterial growth incubated for 18 to 24 hrs; assay type: functional; details: time 18-24 hrs
Streptococcus mutans = test: Antibacterial activity against Streptococcus mutans ATCC 25175 assessed as inhibition of bacterial growth incubated for 18 to 24 hrs; assay type: functional; details: time 18-24 hrs
[2] = Binding affinity to AgrC-I extra-loop-I (unknown origin) assessed as dissociation constant incubated for 10 mins by isothermal titration calorimetry analysis
[3] = Binding affinity to AgrC-I extra-loop-III (unknown origin) assessed as dissociation constant incubated for 10 mins by isothermal titration calorimetry analysis
Homo sapiens = organism: Homo sapiens; test: Binding affinity to AgrC-I extra-loop-II (unknown origin) assessed as change in entropy incubated for 10 mins by isothermal titration calorimetry analysis
[4] = Inhibition of quorum sensing system in Staphylococcus saprophyticus ATCC BAA-750 assessed as downregulation of RNAIII expression level at 0.78 uM incubated for 24 hrs by qRT-PCR analysis
Staphylococcus aureus [5] = test: Antivirulence activity against Staphylococcus aureus assessed as downregulation of RNAIII expression level at 1 to 100 uM incubated for 24 hrs by qRT-PCR analysis; assay type: functional, organism-based; details: dose 1-100 µM
Staphylococcus aureus [6] = test: Antivirulence activity against Staphylococcus aureus ATCC 6538p assessed as downregulation of RNAIII expression level at 2.5 uM measured for 28 passages by qRT-PCR analysis; assay type: functional, organism-based
[7] = test system: Staphylococcus saprophyticus; test: Antibacterial activity against Staphylococcus saprophyticus assessed as reduction in bacterial growth at 6.25 uM measured at 20 mins by time kill assay; assay type: functional, organism-based
Cell membrane [8] = test: Induction of cell membrane damage in Staphylococcus aureus ATCC 6538p assessed as increase in nucleic acid leakage measured up to 30 mins by UV-spectrophotometer analysis; assay type: subcellular
Cell membrane [9] = test: Induction of cell membrane damage in Staphylococcus aureus ATCC 6538p assessed as increase in fluorescent intensity incubated for 30 mins by PI staining based flow cytometry assay

CC[C@H](C)[C@H](NC(=O)CNC(=O)CNC(=O)[C@@H](N)CSC1CC(=O)N(CCCCCC(=O)NCC(=O)N[C@H](C(=O)N[C@@H](CCCCN)C(=O)N[C@@H](CC(N)=O)C(=O)N[C@@H](CC(C)C)C(=O)N[C@@H](Cc2c[nH]c3ccccc23)C(=O)N[C@@H](CCCCN)C(=O)N[C@@H](CCCCN)C(=O)N[C@@H](CCSC)C(=O)N[C@H](C(=O)N[C@@H](CCCCN)C(=O)N[C@@H](CC(C)C)C(=O)N[C@@H](Cc2c[nH]c3ccccc23)C(=O)N[C@@H](Cc2ccc(O)cc2)C(=O)O)[C@@H](C)CC)[C@@H](C)CC)C1=O)C(=O)N[C@@H](CC(N)=O)C(=O)N[C@H]1CCNC(=O)[C@H](CC(C)C)NC(=O)[C@H](CC(C)C)NC(=O)[C@H](Cc2ccccc2)NC(=O)[C@H](C)NC1=O (stereo partly specified) (I: GIKNLWKKMIKLWY-OH / II: H-CGGIN[Dab]AFLL; linker I:N-II:1 via X1; lactam II:6-II:C)
MBC (Staphylococcus aureus [1]): 3.13 µM (≈ 9.4 µg/mL)
MIC (Streptococcus mutans): 3.13 µM (≈ 9.4 µg/mL)
pKd [2]: 12.00
pKd [3]: 12.00
-TdeltaS (Homo sapiens): 16.4 kcal/mol
inhibition [4]: inactive
Activity (Staphylococcus aureus [5]): Active
Activity (Staphylococcus aureus [6]): Active
Activity [7]: inactive
Activity (Cell membrane [8]): Active
Activity (Cell membrane [9]): Active
